# Assay: Neurotoxicity against human neuroblastoma SH-SY5Y cells using MTT dye conversion assay
row,SMILES,CC50 [µM]
1,COc1ccc2c(c1)CCNC2C (stereo not drawn),2790
2,CC1NCCc2ccc(O)cc21 (stereo not drawn),4150
3,COc1cc2c(cc1OC)C(C)NCC2 (stereo not drawn),2730
4,COc1ccc2c(c1)C(C)NCC2 (stereo not drawn),1390
5,CC1NCCc2cc(O)ccc21 (stereo not drawn),3630
6,CC1NCCc2cc(O)c(O)cc21 (stereo not drawn),34
7,COc1cccc2c1CCNC2C (stereo not drawn),2450
8,CC1NCCc2c(O)cccc21 (stereo not drawn),3380

# — ChEMBL document CHEMBL1136177, “Neuroprotective or neurotoxic activity of 1-methyl-1,2,3,4-tetrahydroisoquinoline and related compounds” (Bioorg Med Chem Lett, 2003)
